The text below walks through data of US9890147B2 (BAYER PHARMA AKTIENGESELLSCHAFT, priority 2012, dated 2018).

Test [1] has as its system MV4-11 cells. The test can be described thus: Cell proliferation assay (alamarBlue), MV4-11. The format is cell-based. The following applies: Homo sapiens, 72 hours incubation, inhibition of cell proliferation. The gist of the method: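 Cells seeded at 5000/well in RPMI1640 + 10% FCS, incubated overnight at 37° C, then treated with compound (1E-5 to 1E-8 M) for 72 h at 37° C. Viability by alamarBlue fluorescence (ex 530/em 590 nm); pre-treatment readings subtracted, IC50 derived versus buffer-treated cells.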

The test system of test [2] is Caov-3 cells. As to the kind of experiment: Cell proliferation assay (alamarBlue), Caov-3. The format is cell-based. The following applies: Homo sapiens; inhibition of cell proliferation, Caov-3 (ovarian carcinoma), 96 hours. A digest of the protocol: (§1)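 Caov-3 (MEM Earle's, 10% FCS, 2000 cells/well) and MDA-MB-231 (DMEM/Ham's F12, 10% FCS, 4000 cells/well) were treated after overnight attachment with 1E-5 to 1E-8 M compound. Caov-3 exposure was 96 h. alamarBlue fluorescence (ex 530, em 590 nm) was read after background subtraction of day-0 values, and IC50 calculated versus buffer-treated cells.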

Test [3] concerns B16F10 cells. The test can be described thus: Cell proliferation assay (alamarBlue), B16F10. It counts as cell-based. The following applies: Mus musculus, B16-F10, 96 hours incubation, inhibition of cell proliferation. A digest of the protocol:
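alamarBlue fluorescence (ex 530/em 590 nm) read after overnight seeding at 300-500 cells/well in DMEM + 10% FCS, then after 96 h at 37 °C with compound at 1E-8 to 1E-5 M. Baseline subtracted from endpoint, compared with buffer-treated cells; IC50 = concentration giving 50% proliferation inhibition.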

Test [4] concerns MDA-MB-231 cells. As to the kind of experiment: Cell proliferation assay (alamarBlue), MDA-MB-231. The following applies: Homo sapiens; inhibition of cell proliferation, MDA-MB-231 (breast carcinoma), 96 hours. The format is cell-based. A digest of the protocol:
as §1

Test [5] concerns MOLP-8 cells. The test can be described thus: Cell proliferation assay (alamarBlue), MOLP-8. It counts as cell-based. The following applies: Homo sapiens, 120 hours incubation, inhibition of cell proliferation. A digest of the protocol:
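MOLP-8 cells in RPMI1640 with 20% FCS, 4000 cells/well, treated overnight after seeding with substance at 1E-5 to 1E-8 M for 120 h at 37° C. Viability read by alamarBlue fluorescence (ex 530, em 590); pre-treatment values subtracted, compared with buffer-only cells to derive IC50.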

In test [6] the target is T1, BRD4 (BD1) (Homo sapiens, UniProt O60885).
T1 construct: with relatively long constructs also being possible, preferably amino acids 44-168; made in house; host or cells: E. coli
The test can be described thus: Binding assay BRD4/acetylated peptide H4 (TR-FRET protein-protein interaction assay). The gist of the method:
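His6-BRD4 BD1 (aa 67-152, E. coli), usually 10 nM, with biotinylated tetra-acetylated H4 peptide in HEPES pH 7.5 buffer; 11 compound concentrations 0.1 nM–20 μM in duplicate, 10 min preincubation, 1 h at 22 °C then ≥3 h at 4 °C. TR-FRET 665/620 ratio; IC50 by 4-parameter fit.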

Test [7] concerns KMS-12-PE cells. The test can be described thus: Cell proliferation assay (alamarBlue), KMS-12-PE. It counts as cell-based. The following applies: Homo sapiens, 120 hours incubation, inhibition of cell proliferation. The gist of the method:
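KMS-12-PE myeloma cells in RPMI1640 with 20% FCS were exposed to compound (1E-5 to 1E-8 M) for 120 h at 37° C. AlamarBlue fluorescence (ex 530, em 590 nm) read before and after treatment; the difference versus buffer-treated cells gave IC50.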

Test [8] relates to MOLM-13 cells. As to the kind of experiment: Cell proliferation assay (alamarBlue), MOLM-13. It counts as cell-based. The following applies: Homo sapiens, 96 hours incubation, inhibition of cell proliferation. A digest of the protocol:
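Cells in RPMI1640/10% FCS read by alamarBlue fluorescence (ex 530, em 590 nm) after overnight 37 °C incubation, then treated at 1E-5 to 1E-8 M for 96 h. Pre-treatment values subtracted from endpoint values and compared with buffer-only wells; IC50 is 50% proliferation inhibition.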

Test [9] relates to LOX-IMVI cells. As to the kind of experiment: Cell proliferation assay (alamarBlue), LOX-IMVI. It counts as cell-based. The following applies: Homo sapiens, 72 hours incubation, inhibition of cell proliferation. A digest of the protocol:
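Cells seeded at 1000/well in RPMI1640 with 10% FCS, incubated overnight at 37° C, then treated with dilutions from 1E-5 to 1E-8 M for 72 h. Viability read by alamarBlue fluorescence (ex 530/em 590 nm); pre-treatment values subtracted and compared with buffer-only cells to derive IC50.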

Test [10] concerns LAPC-4 cells. As to the kind of experiment: Cell proliferation assay (alamarBlue), LAPC-4. The format is cell-based. The following applies: Homo sapiens, LAPC4; inhibition of cell proliferation, LAPC-4 (prostate cancer), 1 nM methyltrienolone, 168 hours.

pIC50: −log10 of the molar value.

For the compound `CNC(=O)N1N=C(c2ccc(-c3cc[nH]n3)cc2)c2cc(OC)c(OC)cc2CC1C` (racemic) [Example 3, (±)-7,8-Dimethoxy-N,4-dimethyl-1-[4-(1H-pyrazol-3-yl)phenyl]-4,5-dihydro-3H-2,3-benzodiazepine-3-carboxamide], the pIC50 in [1] is 6.59; in [2] it was 6.26; in [3] it was 6.96; in test [4], 6.68; in test [5] it was 6.55; in [6] it was 7.30. For the same compound, the pIC50 in test [7] was 6.64; in test [8], 6.62; in test [9], 6.02; in [10] it was 6.96.

On to `CNC(=O)N1N=C(c2ccc(N3CCC(O)CC3)cc2)c2cc(OC)c(OC)cc2C[C@@H]1C` [Example 130.1, (4S)-1-[4-(4-hydroxypiperidin-1-yl)phenyl]-7,8-dimethoxy-N,4-dimethyl-4,5-dihydro-3H-2,3-benzodiazepine-3-carboxamide], for which the pIC50 was 7.30 in test [1]; 8.52 in test [2]; 7.00 in [3]; 6.85 in test [4]; 7.30 in [5]; 7.70 in test [6]. In addition, the pIC50 was 7.15 in [7], 7.15 in test [8], 6.72 in [9] and 7.30 in test [10].
